How the values were obtained:
OVCAR-3 = experiment: NCI60 one-dose screen (10 μM), Ovarian Cancer; format: cell-based; settings: Homo sapiens; 10 μM; OVCAR-3, Ovarian Cancer; read-out: Growth percent rate
HCT-116 = experiment: NCI60 one-dose screen (10 μM), Colon Cancer; format: cell-based; settings: Homo sapiens; 10 μM; HCT-116, Colon Cancer; read-out: Growth percent rate
OVCAR-4 = experiment: NCI60 one-dose screen (10 μM), Ovarian Cancer; format: cell-based; settings: Homo sapiens; 10 μM; OVCAR-4, Ovarian Cancer; read-out: Growth percent rate
RXF 393 = experiment: NCI60 one-dose screen (10 μM), Renal Cancer; format: cell-based, human; settings: Homo sapiens; 10 μM; RXF 393, Renal Cancer; read-out: Growth percent rate
NCI-H322M = experiment: NCI60 one-dose screen (10 μM), Non-small Cell Lung Cancer; format: cell-based; settings: Homo sapiens, 10 μM, Non-small Cell Lung Cancer, read-out: Growth percent rate
SF-539 = experiment: NCI60 one-dose screen (10 μM), CNS Cancer; format: cell-based, human; settings: Homo sapiens; 10 μM; SF-539, CNS Cancer; read-out: Growth percent rate
EKVX = experiment: NCI60 one-dose screen (10 μM), Non-small Cell Lung Cancer; format: cell-based; settings: Homo sapiens, 10 μM, Non-small Cell Lung Cancer, read-out: Growth percent rate
SN12C = experiment: NCI60 one-dose screen (10 μM), Renal Cancer; format: cell-based; settings: Homo sapiens, 10 μM, Renal Cancer, read-out: Growth percent rate
OVCAR-8 = experiment: NCI60 one-dose screen (10 μM), Ovarian Cancer; format: cell-based; settings: Homo sapiens; 10 μM; OVCAR-8, Ovarian Cancer; read-out: Growth percent rate
HT29 = experiment: NCI60 one-dose screen (10 μM), Colon Cancer; format: cell-based; settings: Homo sapiens, HT-29; 10 μM; HT29, Colon Cancer; read-out: Growth percent rate
HS 578T = experiment: NCI60 one-dose screen (10 μM), Breast Cancer; format: cell-based; settings: Homo sapiens; 10 μM; HS 578T, Breast Cancer; read-out: Growth percent rate
HL-60(TB) = experiment: NCI60 one-dose screen (10 μM), Leukemia; format: cell-based; settings: Homo sapiens; 10 μM; HL-60(TB), Leukemia; read-out: Growth percent rate
SW-620 = experiment: NCI60 one-dose screen (10 μM), Colon Cancer; format: cell-based; settings: Homo sapiens; 10 μM; SW-620, Colon Cancer; read-out: Growth percent rate
M14 = experiment: NCI60 one-dose screen (10 μM), Melanoma; format: cell-based; settings: Homo sapiens; 10 μM; M14, Melanoma; read-out: Growth percent rate
SK-MEL-28 = experiment: NCI60 one-dose screen (10 μM), Melanoma; format: cell-based; settings: Homo sapiens; 10 μM; SK-MEL-28, Melanoma; read-out: Growth percent rate
RPMI-8226 = experiment: NCI60 one-dose screen (10 μM), Leukemia; format: cell-based; settings: Homo sapiens; 10 μM; RPMI-8226, Leukemia; read-out: Growth percent rate
NCI-H460 = experiment: NCI60 one-dose screen (10 μM), Non-small Cell Lung Cancer; format: cell-based; settings: Homo sapiens; 10 μM; NCI-H460, Non-small Cell Lung Cancer; read-out: Growth percent rate
A498 = experiment: NCI60 one-dose screen (10 μM), Renal Cancer; format: cell-based; settings: Homo sapiens; 10 μM; A498, Renal Cancer; read-out: Growth percent rate
CCRF-CEM = experiment: NCI60 one-dose screen (10 μM), Leukemia; format: cell-based; settings: Homo sapiens, 10 μM, Leukemia, read-out: Growth percent rate
HCC-2998 = experiment: NCI60 one-dose screen (10 μM), Colon Cancer; format: cell-based; settings: Homo sapiens; 10 μM; HCC-2998, Colon Cancer; read-out: Growth percent rate
COLO 205 = experiment: NCI60 one-dose screen (10 μM), Colon Cancer; format: cell-based, human; settings: Homo sapiens; 10 μM; COLO 205, Colon Cancer; read-out: Growth percent rate
MCF7 = experiment: NCI60 one-dose screen (10 μM), Breast Cancer; format: cell-based; settings: Homo sapiens; 10 μM; MCF7, Breast Cancer; read-out: Growth percent rate
HCT-15 = experiment: NCI60 one-dose screen (10 μM), Colon Cancer; format: cell-based; settings: Homo sapiens; 10 μM; HCT-15, Colon Cancer; read-out: Growth percent rate
A549/ATCC = experiment: NCI60 one-dose screen (10 μM), Non-small Cell Lung Cancer; format: cell-based; settings: Homo sapiens; 10 μM; A549/ATCC, Non-small Cell Lung Cancer; read-out: Growth percent rate
SK-MEL-5 = experiment: NCI60 one-dose screen (10 μM), Melanoma; format: cell-based, human; settings: Homo sapiens; 10 μM; SK-MEL-5, Melanoma; read-out: Growth percent rate
U251 = experiment: NCI60 one-dose screen (10 μM), CNS Cancer; format: cell-based; settings: Homo sapiens, U-251; 10 μM; U251, CNS Cancer; read-out: Growth percent rate
DU-145 = experiment: NCI60 one-dose screen (10 μM), Prostate Cancer; format: cell-based; settings: Homo sapiens; 10 μM; DU-145, Prostate Cancer; read-out: Growth percent rate
IGROV1 = experiment: NCI60 one-dose screen (10 μM), Ovarian Cancer; format: cell-based; settings: Homo sapiens, IGROV-1; 10 μM; IGROV1, Ovarian Cancer; read-out: Growth percent rate
[1] = test system: 60 human tumor cell lines (NCI60); experiment: NCI60 one-dose screen (10 μM), whole panel; format: cell-based; settings: for activity at 10 µM: mean over 60 human cancer cell lines, read-out: Growth percent rate, Mean
MDA-MB-435 = experiment: NCI60 one-dose screen (10 μM), Melanoma; format: cell-based; settings: Homo sapiens; 10 μM; MDA-MB-435, Melanoma; read-out: Growth percent rate
CAKI-1 = experiment: NCI60 one-dose screen (10 μM), Renal Cancer; format: cell-based; settings: Homo sapiens; 10 μM; CAKI-1, Renal Cancer; read-out: Growth percent rate
SK-MEL-2 = experiment: NCI60 one-dose screen (10 μM), Melanoma; format: cell-based; settings: Homo sapiens; 10 μM; SK-MEL-2, Melanoma; read-out: Growth percent rate
UACC-257 = experiment: NCI60 one-dose screen (10 μM), Melanoma; format: cell-based; settings: Homo sapiens; 10 μM; UACC-257, Melanoma; read-out: Growth percent rate
HOP-62 = experiment: NCI60 one-dose screen (10 μM), Non-small Cell Lung Cancer; format: cell-based; settings: Homo sapiens; 10 μM; HOP-62, Non-small Cell Lung Cancer; read-out: Growth percent rate
786–0 = experiment: NCI60 one-dose screen (10 μM), Renal Cancer; format: cell-based; settings: Homo sapiens; 10 μM; 786-0, Renal Cancer; read-out: Growth percent rate
NCI-H23 = experiment: NCI60 one-dose screen (10 μM), Non-small Cell Lung Cancer; format: cell-based; settings: Homo sapiens; 10 μM; NCI-H23, Non-small Cell Lung Cancer; read-out: Growth percent rate
NCI-H522 = experiment: as above; format: cell-based; settings: Homo sapiens; 10 μM; NCI-H522, Non-small Cell Lung Cancer; read-out: Growth percent rate
ACHN = experiment: NCI60 one-dose screen (10 μM), Renal Cancer; format: cell-based; settings: Homo sapiens, 10 μM, Renal Cancer, read-out: Growth percent rate
K-562 = experiment: NCI60 one-dose screen (10 μM), Leukemia; format: cell-based; settings: Homo sapiens, K562; 10 μM; K-562, Leukemia; read-out: Growth percent rate
SF-268 = experiment: NCI60 one-dose screen (10 μM), CNS Cancer; format: cell-based; settings: Homo sapiens; 10 μM; SF-268, CNS Cancer; read-out: Growth percent rate
MOLT-4 = experiment: NCI60 one-dose screen (10 μM), Leukemia; format: cell-based, human; settings: Homo sapiens; 10 μM; MOLT-4, Leukemia; read-out: Growth percent rate
SNB-75 = experiment: NCI60 one-dose screen (10 μM), CNS Cancer; format: cell-based, human; settings: Homo sapiens; 10 μM; SNB-75, CNS Cancer; read-out: Growth percent rate

CC[C@]12C=CCN3CC[C@@]4(c5ccc(OC)cc5N(C)[C@H]4[C@@](O)(C(=O)OC)[C@@H]1OC(=O)CCCN1CCN(Cc4ccc(C(F)(F)F)cc4)CC1)[C@@H]32 [Compound 23]
activity at 10 µM (OVCAR-3): -68.4% | activity at 10 µM (HCT-116): -89.3% | activity at 10 µM (OVCAR-4): -32.1% | activity at 10 µM (RXF 393): -85.3% | activity at 10 µM (NCI-H322M): -48.2% | activity at 10 µM (SF-539): -98.5% | activity at 10 µM (EKVX): -75.1% | activity at 10 µM (SN12C): -4.35% | activity at 10 µM (OVCAR-8): -42% | activity at 10 µM (HT29): -54.4% | activity at 10 µM (HS 578T): -61.1% | activity at 10 µM (HL-60(TB)): -65.8% | activity at 10 µM (SW-620): -87.1% | activity at 10 µM (M14): -88.9% | activity at 10 µM (SK-MEL-28): -94.8% | activity at 10 µM (RPMI-8226): -58.3% | activity at 10 µM (NCI-H460): -84.7% | activity at 10 µM (A498): -93.9% | activity at 10 µM (CCRF-CEM): -63.1% | activity at 10 µM (HCC-2998): -83.6% | activity at 10 µM (COLO 205): -82.9% | activity at 10 µM (MCF7): -74.3% | activity at 10 µM (HCT-15): -68.1% | activity at 10 µM (A549/ATCC): -67.8% | activity at 10 µM (SK-MEL-5): -98.5% | activity at 10 µM (U251): -78.1% | activity at 10 µM (DU-145): -64.9% | activity at 10 µM (IGROV1): -71% | growth rate ([1]; 10 μM one-dose, on almost all tested cancer types and cell lines, negative = lethality): < −60% | activity at 10 µM [1]: -71.8% | activity at 10 µM (MDA-MB-435): -95.3% | activity at 10 µM (CAKI-1): -78% | activity at 10 µM (SK-MEL-2): -72.6% | activity at 10 µM (UACC-257): -82.2% | activity at 10 µM (HOP-62): -86.7% | activity at 10 µM (786–0): -95.7% | activity at 10 µM (NCI-H23): -71.3% | activity at 10 µM (NCI-H522): -59.3% | activity at 10 µM (ACHN): -78.1% | activity at 10 µM (K-562): -73.3% | activity at 10 µM (SF-268): -55.1% | activity at 10 µM (MOLT-4): -68.5% | activity at 10 µM (SNB-75): -68.8%

CCC12C=CCN3CCC4(c5cc(NC(=O)CCl)c(OC)cc5N(C)C4C(O)(C(=O)OC)C1OC(C)=O)C32 (centres unmarked) [Compound 12, 10-chloroacetamidovindoline]
activity at 10 µM (OVCAR-3): -14.7% | activity at 10 µM (HCT-116): 41.2% | activity at 10 µM (OVCAR-4): -17.1% | activity at 10 µM (RXF 393): -32.6% | activity at 10 µM (NCI-H322M): 58.9% | activity at 10 µM (SF-539): 4.74% | activity at 10 µM (EKVX): 46.6% | activity at 10 µM (SN12C): 11% | activity at 10 µM (OVCAR-8): 29.6% | activity at 10 µM (HT29): 54.1% | activity at 10 µM (HS 578T): -16.8% | activity at 10 µM (HL-60(TB)): 37.9% | activity at 10 µM (SW-620): 64.5% | activity at 10 µM (M14): 37% | activity at 10 µM (SK-MEL-28): -0.03% | activity at 10 µM (RPMI-8226): -24.7% | activity at 10 µM (NCI-H460): 51% | activity at 10 µM (A498): 54.6% | activity at 10 µM (CCRF-CEM): 12.6% | activity at 10 µM (HCC-2998): 24.2% | activity at 10 µM (COLO 205): 87.2% | activity at 10 µM (MCF7): 2.74% | activity at 10 µM (HCT-15): 50.1% | activity at 10 µM (A549/ATCC): 64% | activity at 10 µM (SK-MEL-5): -17.6% | activity at 10 µM (U251): -47.9% | activity at 10 µM (DU-145): 43.9% | activity at 10 µM (IGROV1): 27.5% | antiproliferative effect (in words) ([1]; 10 μM one-dose, NCI60): moderate cytostatic activity | activity at 10 µM [1]: 18.1% | activity at 10 µM (MDA-MB-435): 39.9% | activity at 10 µM (CAKI-1): 43.8% | activity at 10 µM (SK-MEL-2): -69.6% | activity at 10 µM (UACC-257): -3.69% | activity at 10 µM (HOP-62): -57.6% | activity at 10 µM (786–0): 21.3% | activity at 10 µM (NCI-H23): -4.42% | activity at 10 µM (NCI-H522): 8.28% | activity at 10 µM (ACHN): 37.3% | activity at 10 µM (K-562): 36.4% | activity at 10 µM (SF-268): -0.99% | activity at 10 µM (MOLT-4): -26.9% | activity at 10 µM (SNB-75): -8.81%
